Seven compounds from ChEMBL document CHEMBL1158011, “Five new flavone 5-O-glycosides from Lethedon tannaensis: lethedosides and lethediosides” (J Nat Prod, 1999) can be followed below.

≈ marks a conversion by molar mass, not a printed value.

The assay deals with KB. Put plainly: Cytotoxicity against human KB cells after 72 hrs by neutral red assay. The format is functional, cell-based.
As to `COc1ccc(-c2cc(=O)c3c(O[C@@H]4O[C@H](CO[C@@H]5OC[C@@H](O)[C@H](O)[C@H]5O)[C@@H](O)[C@H](O)[C@H]4O)cc(OC)cc3o2)cc1`, the IC50 was over 100 µg/mL. Next, `COc1cc(O[C@@H]2O[C@H](CO[C@@H]3OC[C@@H](O)[C@H](O)[C@H]3O)[C@@H](O)[C@H](O)[C@H]2O)c2c(=O)cc(-c3ccc(OC)c(OC)c3)oc2c1` [LETHEDIOSIDE A]: over 100 µg/mL; `COc1cc(O[C@@H]2O[C@H](CO[C@@H]3OC[C@@H](O)[C@H](O)[C@H]3O)[C@@H](O)[C@H](O)[C@H]2O)c2c(=O)cc(-c3cc(OC)c(OC)c(OC)c3)oc2c1` [LETHEDIOSIDE B]: 32 µg/mL (≈ 49 µM); `COc1cc(O[C@@H]2O[C@H](CO)[C@@H](O)[C@H](O)[C@H]2O)c2c(=O)cc(-c3ccc(OC)c(OC)c3)oc2c1` [LETHEDOSIDE A]: over 100 µg/mL.

In turn, `COc1cc(O[C@@H]2O[C@H](CO)[C@@H](O)[C@H](O)[C@H]2O)c2c(=O)cc(-c3cc(OC)c(OC)c(OC)c3)oc2c1` [LETHEDOSIDE B] showed an IC50 of 37 µg/mL (≈ 71.1 µM). Compound `COc1cc(O[C@@H]2O[C@H](CO)[C@@H](O)[C@H](O)[C@H]2O)c2c(=O)cc(-c3cc(O)c(OC)c(OC)c3)oc2c1` [LETHEDOSIDE C] returned an IC50 of 43 µg/mL (≈ 84.9 µM). Next, `COc1cc(O)c2c(=O)cc(-c3ccc(O)c(OC)c3)oc2c1` [VELUTIN]: 1.5 µg/mL (≈ 4.77 µM).

The term IC50 denotes the concentration needed to halve the response being measured. Lower therefore signals greater potency in that assay.
